Assay results published in ChEMBL document CHEMBL3046147, “Synthesis and Herbicidal Activity of 1-Arylalkyl-3-pyrrolin-2-one Derivatives” (J Pestic Sci, 2000).

Legend:
Echinochloa oryzicola [1] = assay: Pre-emergence herbicide activity against Echinochloa oryzicola under greenhouse condition measured after 14 to 20 days; type: functional
Oryza sativa [2] = assay: Phytotoxicity against two-leaf stage Oryza sativa cv. Nihonbare (rice) planted 1 cm depth measured after […]; type: organism-based; conditions: in vivo
Oryza sativa [3] = assay: Phytotoxicity against two-leaf stage Oryza sativa cv. Nihonbare (rice) planted 3 cm depth measured after […]; type: organism-based; conditions: in vivo
Sagittaria pygmaea = assay: Herbicide activity against Sagittaria pygmaea under greenhouse condition compound treated at 0.5 leaf-stage measured after 14 to 20 days; type: functional
[4] = system: Schoenoplectiella juncoides; assay: Herbicide activity against Schoenoplectiella juncoides under greenhouse condition compound treated at emergence-stage measured after 14 to 20 days; type: functional
Echinochloa oryzicola [5] = assay: Herbicide activity against Echinochloa oryzicola under greenhouse condition compound treated at 2 leaf-stage measured after 14 to 20 days; type: functional

| SMILES | MED (Echinochloa oryzicola [1]) | MTD (Oryza sativa [2]) | MTD (Oryza sativa [3]) | MED (Sagittaria pygmaea) | MED [4] | MED (Echinochloa oryzicola [5]) |
| --- | --- | --- | --- | --- | --- | --- |
| CC1=C(c2ccc(F)cc2)C(=O)N(C(C)(C)c2nc3ccccc3s2)C1 | 5 g/acre | > 5 g/acre | 20 g/acre | 20 g/acre | 20 g/acre | 5 g/acre |
| CC1=C(c2ccccc2)C(=O)N(C(C)(C)c2sc3ccccc3[n+]2[O-])C1 | <10 g/acre | 80 g/acre | 80 g/acre | 160 g/acre | 160 g/acre | <5 g/acre |
| CC1=C(Oc2ccccc2)C(=O)N(C(C)(C)c2nc3ccccc3s2)C1 | 80 g/acre | 40 g/acre | 40 g/acre | 40 g/acre | 80 g/acre |  |
| CC(C)(c1nc2ccccc2s1)N1CC(C(F)(F)F)=C(c2ccccc2)C1=O | 1.25 g/acre | 5 g/acre | 10 g/acre | 40 g/acre | 80 g/acre | <5 g/acre |
| COc1ccc2nc(C(C)(C)N3CC(C)=C(c4ccccc4)C3=O)sc2c1 | 0.313 g/acre | > 5 g/acre | 10 g/acre | 40 g/acre | 20 g/acre | 2.5 g/acre |
| CC1=C(c2cccc([N+](=O)[O-])c2)C(=O)N(C(C)(C)c2nc3ccccc3s2)C1 | 160 g/acre | 80 g/acre | 80 g/acre | 160 g/acre | 160 g/acre | <5 g/acre |
| CC1=C(c2ccccc2O)C(=O)N(C(C)(C)c2nc3ccccc3s2)C1 | 10 g/acre | 20 g/acre | 5 g/acre | 80 g/acre | 2.5 g/acre | <5 g/acre |
| CC1=C(c2ccccc2)C(=O)N(C(C)(C)c2ncc(-c3ccc(Cl)cc3)s2)C1 | 40 g/acre | 80 g/acre | 80 g/acre | 160 g/acre | 160 g/acre | <5 g/acre |
| CC1=C(c2cccc(Cl)c2)C(=O)N(C(C)(C)c2nc3ccccc3s2)C1 | 10 g/acre | 5 g/acre | 10 g/acre | 80 g/acre | 40 g/acre | <5 g/acre |
| CC1=C(c2ccccc2)C(=O)N(C(C)(C)c2nc3ccccc3n2C)C1 | <10 g/acre | 80 g/acre | 40 g/acre | 20 g/acre | 40 g/acre | <5 g/acre |
| CC1=C(c2ccccc2F)C(=O)N(C(C)(C)c2nc3ccccc3s2)C1 | 0.156 g/acre | 5 g/acre | 10 g/acre | 20 g/acre | 10 g/acre | 2.5 g/acre |
| COc1ccccc1C1=C(C)CN(C(C)(C)c2nc3ccccc3s2)C1=O | 5 g/acre | > 5 g/acre | 5 g/acre | 5 g/acre | 5 g/acre | <5 g/acre |
| CCC1=C(c2ccccc2)C(=O)N(C(C)(C)c2nc3ccccc3s2)C1 | 0.313 g/acre | 20 g/acre | 40 g/acre | 80 g/acre | 10 g/acre | 5 g/acre |
| CC1=C(c2ccccc2)C(=O)N(C(C)(C)c2nc3cc(F)ccc3s2)C1 | 1.25 g/acre | 1.25 g/acre | 10 g/acre | 20 g/acre | 40 g/acre | 5 g/acre |
| CC1=C(c2ccccc2)C(=O)N(C(C)(C)c2nc3ccccc3o2)C1 | 0.625 g/acre | 5 g/acre | 20 g/acre | 10 g/acre | 2.5 g/acre | 5 g/acre |
| CC1=C(c2ccccc2)C(=O)N(C(C)(C)c2nc3c(Cl)cccc3s2)C1 | 1.25 g/acre | > 5 g/acre | 10 g/acre | 80 g/acre | 80 g/acre | 5 g/acre |
| CC1=C(c2ccccc2)C(=O)N(C(C)(C)c2cccs2)C1 | 5 g/acre | 10 g/acre | 20 g/acre | 20 g/acre | 10 g/acre | <10 g/acre |
| CC1=C(c2ccccc2)C(=O)N(C(C)(C)c2ccc(Cl)s2)C1 | 0.625 g/acre | 10 g/acre | 20 g/acre | 80 g/acre | 10 g/acre | 10 g/acre |
| CC1=C(c2ccccc2)C(=O)N(C(C)(C)c2nc3ccc(C)cc3s2)C1 | 10 g/acre | 5 g/acre | 20 g/acre | 20 g/acre | 80 g/acre | <5 g/acre |

| SMILES | MED (Echinochloa oryzicola [1]) | MTD (Oryza sativa [2]) | MTD (Oryza sativa [3]) | MED (Sagittaria pygmaea) | MED [4] | MED (Echinochloa oryzicola [5]) |
| --- | --- | --- | --- | --- | --- | --- |
| CC1=C(/C=C/c2ccccc2)C(=O)N(C(C)(C)c2nc3ccccc3s2)C1 | 160 g/acre | 80 g/acre | 80 g/acre | 80 g/acre | 80 g/acre | <5 g/acre |
| CC1=C(c2ccccc2C(=O)O)C(=O)N(C(C)(C)c2nc3ccccc3s2)C1 | 160 g/acre | 40 g/acre | 20 g/acre | 160 g/acre | 160 g/acre | <5 g/acre |
| CC1=C(c2ccccc2)C(=O)N(C(C)(C)c2cc3ccccc3s2)C1 | 0.313 g/acre | 10 g/acre | 20 g/acre | 160 g/acre | 80 g/acre | 5 g/acre |
| CC1=C(c2ccccc2Cl)C(=O)N(C(C)(C)c2nc3ccccc3s2)C1 | 2.5 g/acre | 1.25 g/acre | 2.5 g/acre | 10 g/acre | 10 g/acre | 2.5 g/acre |
| CC1=C(Oc2ccc(Cl)cc2)C(=O)N(C(C)(C)c2nc3ccccc3s2)C1 | 80 g/acre | 40 g/acre | 40 g/acre | 160 g/acre | 160 g/acre | <5 g/acre |
| COc1cccc2sc(C(C)(C)N3CC(C)=C(c4ccccc4)C3=O)nc12 | 10 g/acre | 20 g/acre | 40 g/acre | 80 g/acre | 80 g/acre | <5 g/acre |
| CC1=C(c2ccc(F)cc2F)C(=O)N(C(C)(C)c2nc3ccccc3s2)C1 | 1.25 g/acre | > 5 g/acre | 10 g/acre | 10 g/acre | 10 g/acre | <5 g/acre |
| CC1=C(c2ccccc2)C(=O)N(C(C)(C)c2ccccn2)C1 | 20 g/acre |  |  | 80 g/acre | 40 g/acre |  |
| CC1=C(c2ccccc2)C(=O)N(C(C)(C)c2nc3cc(C(=O)O)ccc3s2)C1 | 80 g/acre | 10 g/acre | 20 g/acre | 80 g/acre | 80 g/acre | <5 g/acre |
| CCOc1ccc2nc(C(C)(C)N3CC(C)=C(c4ccccc4)C3=O)sc2c1 | 1.25 g/acre | 5 g/acre | 10 g/acre | 80 g/acre | 160 g/acre | <5 g/acre |
| CC1=C(c2ccccc2)C(=O)N(C(C)(C)c2nc3cc(Br)ccc3s2)C1 | 20 g/acre | 80 g/acre | 80 g/acre | 160 g/acre | 160 g/acre |  |
| CC1=C(c2ccccc2)C(=O)N(C(C)(C)c2cc3ccccc3o2)C1 | 0.313 g/acre | 10 g/acre | 20 g/acre | 80 g/acre | 80 g/acre | 2.5 g/acre |
| CC1=C(c2ccccc2Br)C(=O)N(C(C)(C)c2nc3ccccc3s2)C1 | 2.5 g/acre | > 5 g/acre | 5 g/acre | 40 g/acre | 20 g/acre | <5 g/acre |
| COc1ccc(C2=C(C)CN(C(C)(C)c3nc4ccccc4s3)C2=O)cc1OC | 160 g/acre | 80 g/acre | 80 g/acre | 160 g/acre | 160 g/acre | <5 g/acre |
| CC1=C(c2ccc(Cl)cc2)C(=O)N(C(C)(C)c2nc3ccccc3s2)C1 | 80 g/acre | 20 g/acre | 40 g/acre | 160 g/acre | 160 g/acre | <5 g/acre |
| CC1=C(c2ccccc2)C(=O)N(C(C)(C)c2nc3ccc(F)cc3s2)C1 | 5 g/acre | 5 g/acre | 20 g/acre | 40 g/acre | 40 g/acre | <5 g/acre |
| CC(C)(c1nc2ccccc2s1)N1CC=C(c2ccccc2)C1=O | 0.625 g/acre | 2.5 g/acre | < 20 g/acre | 10 g/acre | 5 g/acre | 5 g/acre |
| CC1=C(c2ccccc2)C(=O)N(C(C)(C)c2nc3cc(C(F)(F)F)ccc3s2)C1 | 80 g/acre | 20 g/acre | 20 g/acre | 160 g/acre | 80 g/acre | <5 g/acre |
| CC1=C(c2cccc3ccccc23)C(=O)N(C(C)(C)c2nc3ccccc3s2)C1 | 80 g/acre | 80 g/acre | 80 g/acre | 80 g/acre | 80 g/acre |  |
